Control data for ten compounds are collected here from ChEMBL document CHEMBL1150014, “DISCOVERY OF A NOVEL CLASS OF BK CHANNEL OPENERS: ENANTIOSPECIFIC SYNTHESIS AND BK CHANNEL OPENING ACTIVITY OF 3-(5-CHLORO-2-HYDROXYPHENYL)-1,3-DIHYDRO-3-HYDROXY-6-(TRIFLUOROMETHYL)-2H-INDOL-2-ONE” (Bioorg Med Chem Lett, 1997).

Structures are written as SMILES.

In the first experiment the target is Calcium-activated potassium channel subunit alpha-1 (Mus musculus) (UniProt Q08460). The experiment is described as follows: Effect on outward K+ current using two-electrode voltage clamp recording from Xenopus laevis oocyte expressing cloned mSlo at 20 uM. The class given is functional. For orientation: Two-electrode voltage clamp is typically applied to oocytes expressing channels or transporters.
Calcium-activated potassium channel subunit alpha-1 (Mus musculus), sequence (Q08460 whole entry): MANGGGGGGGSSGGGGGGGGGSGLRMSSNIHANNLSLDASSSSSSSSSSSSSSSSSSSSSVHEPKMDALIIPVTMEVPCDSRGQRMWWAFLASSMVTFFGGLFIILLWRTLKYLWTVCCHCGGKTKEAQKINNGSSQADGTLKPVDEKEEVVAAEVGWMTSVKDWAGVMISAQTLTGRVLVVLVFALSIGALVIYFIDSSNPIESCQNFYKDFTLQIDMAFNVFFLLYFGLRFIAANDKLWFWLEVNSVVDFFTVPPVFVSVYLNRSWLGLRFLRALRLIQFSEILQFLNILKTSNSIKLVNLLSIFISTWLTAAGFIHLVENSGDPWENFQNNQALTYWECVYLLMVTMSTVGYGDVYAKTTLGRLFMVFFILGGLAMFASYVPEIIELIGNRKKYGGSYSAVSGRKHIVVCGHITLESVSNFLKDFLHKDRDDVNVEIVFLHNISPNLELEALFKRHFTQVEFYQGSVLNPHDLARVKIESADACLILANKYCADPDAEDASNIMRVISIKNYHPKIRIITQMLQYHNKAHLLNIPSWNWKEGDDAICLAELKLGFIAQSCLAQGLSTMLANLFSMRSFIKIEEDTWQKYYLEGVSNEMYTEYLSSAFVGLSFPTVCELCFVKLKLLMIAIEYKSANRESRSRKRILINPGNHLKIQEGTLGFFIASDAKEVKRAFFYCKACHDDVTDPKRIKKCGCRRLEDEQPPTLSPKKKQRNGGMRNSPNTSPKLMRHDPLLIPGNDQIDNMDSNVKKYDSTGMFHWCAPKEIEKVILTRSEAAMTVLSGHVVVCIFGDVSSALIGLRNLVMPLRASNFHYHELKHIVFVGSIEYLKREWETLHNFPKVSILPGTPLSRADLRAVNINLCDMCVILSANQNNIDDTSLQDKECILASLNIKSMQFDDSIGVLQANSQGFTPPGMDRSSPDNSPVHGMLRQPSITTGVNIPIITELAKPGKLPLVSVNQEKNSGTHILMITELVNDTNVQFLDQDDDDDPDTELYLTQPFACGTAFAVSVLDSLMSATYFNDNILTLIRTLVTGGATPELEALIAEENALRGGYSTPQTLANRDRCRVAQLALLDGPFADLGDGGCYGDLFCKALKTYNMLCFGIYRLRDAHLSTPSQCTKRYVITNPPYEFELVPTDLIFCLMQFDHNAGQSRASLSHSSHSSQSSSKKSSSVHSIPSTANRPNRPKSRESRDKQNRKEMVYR
Take `O=c1[nH]c2cc(C(F)(F)F)ccc2n1-c1cc(Cl)ccc1O`: the Control was found to be 132%.
Same read-out and setting: the same measure for `O=C1Nc2cc(C(F)(F)F)ccc2C1(O)c1cc(Cl)ccc1O` (racemic): 131%; for `O=C1Nc2cc(C(F)(F)F)ccc2C1(O)c1ccccc1O` (racemic): 90.4%; for `O=C1Nc2ccccc2C1(O)c1cc(Cl)ccc1O` (racemic): 95.3%.
Still for that read-out and setting: the same measure for `O=C1Nc2cc(C(F)(F)F)ccc2[C@@]1(O)c1cc(Cl)ccc1O` (stereo in doubt; (+)-4e): 124%; for `O=C1Nc2cc(C(F)(F)F)ccc2[C@@]1(O)c1cc(Cl)ccc1O` (stereo in doubt; (-)-4e): 141%.

For a further experiment, the target named is Calcium-activated potassium channel subunit alpha-1 (Homo sapiens) (UniProt Q12791). The experiment is described as follows: Effect on outward K+ current using two-electrode voltage clamp recording from Xenopus laevis oocyte expressing cloned hSlo at 20 uM. The class given is functional.
Calcium-activated potassium channel subunit alpha-1 (Homo sapiens), sequence (Q12791 whole entry): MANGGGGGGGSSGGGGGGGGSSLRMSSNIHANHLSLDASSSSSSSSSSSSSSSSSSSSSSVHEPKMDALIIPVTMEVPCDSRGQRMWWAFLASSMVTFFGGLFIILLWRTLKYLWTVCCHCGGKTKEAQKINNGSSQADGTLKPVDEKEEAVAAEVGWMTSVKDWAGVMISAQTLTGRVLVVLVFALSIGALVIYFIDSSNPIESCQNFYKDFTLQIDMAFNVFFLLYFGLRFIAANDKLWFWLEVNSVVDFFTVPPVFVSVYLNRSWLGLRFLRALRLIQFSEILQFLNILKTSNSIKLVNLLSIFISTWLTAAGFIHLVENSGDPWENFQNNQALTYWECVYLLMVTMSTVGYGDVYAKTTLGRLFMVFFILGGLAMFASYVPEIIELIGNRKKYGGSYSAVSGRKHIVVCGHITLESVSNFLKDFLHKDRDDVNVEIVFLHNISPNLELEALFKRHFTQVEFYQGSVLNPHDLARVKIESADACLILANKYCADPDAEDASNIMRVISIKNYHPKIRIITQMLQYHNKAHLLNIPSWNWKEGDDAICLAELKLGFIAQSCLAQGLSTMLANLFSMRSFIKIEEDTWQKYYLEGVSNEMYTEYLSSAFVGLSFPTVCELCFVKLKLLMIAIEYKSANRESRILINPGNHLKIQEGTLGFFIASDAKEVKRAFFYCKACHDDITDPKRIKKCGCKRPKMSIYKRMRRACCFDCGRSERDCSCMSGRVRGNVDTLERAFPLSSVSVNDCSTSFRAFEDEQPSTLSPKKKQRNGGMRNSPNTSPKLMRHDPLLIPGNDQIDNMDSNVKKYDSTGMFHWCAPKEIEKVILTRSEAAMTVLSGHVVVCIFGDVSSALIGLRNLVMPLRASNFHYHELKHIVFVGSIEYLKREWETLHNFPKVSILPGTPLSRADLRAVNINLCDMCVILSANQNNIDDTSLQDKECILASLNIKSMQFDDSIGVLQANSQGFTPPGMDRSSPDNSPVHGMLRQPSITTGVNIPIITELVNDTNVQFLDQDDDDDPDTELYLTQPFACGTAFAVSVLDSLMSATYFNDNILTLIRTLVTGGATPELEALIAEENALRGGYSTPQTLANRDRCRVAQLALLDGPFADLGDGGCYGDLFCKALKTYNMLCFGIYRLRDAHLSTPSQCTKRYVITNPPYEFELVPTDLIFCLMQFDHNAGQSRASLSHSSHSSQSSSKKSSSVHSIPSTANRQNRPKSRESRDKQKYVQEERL
On to `COc1ccc(Cl)cc1C1(O)C(=O)Nc2cc(C(F)(F)F)ccc21` (racemic), for which the Control came to 120%.
Consider `O=C1Nc2cc(C(F)(F)F)ccc2C1(O)c1cccc(Cl)c1` (racemic), for which the Control is 96.7%.
As to `COc1ccc(Cl)cc1[C@]1(O)C(=O)Nc2cc(C(F)(F)F)ccc21` (stereo in doubt; (+)-4c), the Control was found to be 117%.
Take `COc1ccc(Cl)cc1[C@]1(O)C(=O)Nc2cc(C(F)(F)F)ccc21` (stereo in doubt; (-)-4c): the Control was 116%.

The next experiment deals with Calcium-activated potassium channel subunit alpha-1 (Mus musculus) (UniProt Q08460). The experiment is described as follows: Effect on outward K+ current using two-electrode voltage clamp recording from Xenopus laevis oocyte expressing cloned mSlo at 30 uM. The class given is functional.
`O=c1[nH]c2cc(C(F)(F)F)ccc2n1-c1cc(Cl)ccc1O`: the Control worked out at 148%.
For `O=C1Nc2cc(C(F)(F)F)ccc2C1(O)c1cc(Cl)ccc1O` (racemic), the Control came to 201%.
